# Measured values published in publication PMC9604401 (International Journal of Molecular Sciences, 2022).
# Like-named read-outs stand apart in the source and are kept apart here.
# Legend:
# MERS nsp1 = MERS nsp1 (Middle East respiratory syndrome-related coronavirus, UniProt K9N7C7); assay: biochemical; type: binding
# SARS-CoV-2 nsp1_10-126 [1] = molecular target: T1, SARS-CoV-2 nsp1_10-126 (Severe acute respiratory syndrome coronavirus 2, UniProt P0DTD1); assay: Microscale thermophoresis (MST) binding affinity
# SARS-CoV-1 nsp1 = SARS-CoV-1 nsp1 (Severe acute respiratory syndrome coronavirus, UniProt P0C6X7); assay: biochemical; type: binding
# SARS-CoV-2 nsp1_10-126 [2] = molecular target: T1, SARS-CoV-2 nsp1_10-126; assay: Thermal shift assay (TSA) by nanoDSF; type: binding; settings: 4 mM fragment; for TSA effect on unfolding of the protein, in words / TSA Ti ± SD: 2.0% DMSO; for TSA Ti ± SD: nanoDSF, 1.25 mg/mL protein, n = 3, APUC = atypical protein unfolding curve; for TSA ΔTi: Ti (protein-fragment) − Ti (protein-DMSO), control Ti 54.05 °C in 2.0% DMSO; for TSA |ΔTi|-3SD: > 0 regarded as statistically significant
# Text: For TSA, nsp1 in the presence of an equal concentration of DMSO was used as a control to offset the influence of DMSO on the protein. The averaged change of inflection temperature (△Ti) of the protein in the presence of fragments higher than three-fold of standard deviation (|△Ti|-3*SD > 0) was regarded as statistically significant. […] In this regard, TSA may not be suitable yet for the validation of hits against SARS-CoV-2 nsp1_10-126, as we have recently also observed for another SARS-CoV-2 protein, nsp10 [41]. With respect to physicochemical properties, calculated values for fragments are well within the expected range, indicating good starting points for structure-based drug design.
# The protein concentration used in this assay was determined by analysing the unfolding curves of SARS-CoV-2 nsp1_10-126 at different concentrations in the presence of 2% DMSO. Fragments dissolved in DMSO (200 mM stocks) were diluted in buffer E supplied with 0.05% Pluronic® F-127 and mixed with nsp1_10-126. The final concentration of fragments was 4 mM containing 2.0% DMSO, while the final protein concentration was 1.25 mg/mL. After centrifugation for 5 min at 6000 rpm, the samples were loaded into Tycho NT.6 capillaries (TY-C001, NanoTemper, München, Germany) with 1.25 mg/mL SARS-CoV-2 nsp1_10-126 in the presence of 2% DMSO as control and measured by the Tycho NT.6 instrument (NanoTemper, München, Germany) in triplicate. The resulting Ti values are presented as means ± SD (n = 3) and the △Ti values for each sample were calculated with the following equation. △Ti = Ti (protein-fragment) − Ti (protein-DMSO)
# Chain of MERS nsp1 (K9N7C7 2-193 limits assumed): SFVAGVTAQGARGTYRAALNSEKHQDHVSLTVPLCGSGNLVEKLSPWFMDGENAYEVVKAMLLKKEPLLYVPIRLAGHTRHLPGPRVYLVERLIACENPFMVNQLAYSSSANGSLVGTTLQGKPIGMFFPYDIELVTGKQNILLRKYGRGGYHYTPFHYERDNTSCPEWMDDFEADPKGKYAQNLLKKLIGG
smiles,measurement,setting,value
CNCc1ccc(-c2cccs2)cc1 [Fragment 5E11],Kd,MERS nsp1,> 20 mM
same,Kd,SARS-CoV-2 nsp1_10-126 [1],0.48 ± 0.3 mM
same,Kd,SARS-CoV-1 nsp1,12.8 ± 24.1 mM
same,"TSA effect on unfolding of the protein, in words",SARS-CoV-2 nsp1_10-126 [2],atypical unfolding curves
same,TSA Ti ± SD,SARS-CoV-2 nsp1_10-126 [2],APUC
C[C@H](N)c1ccc(Cl)cc1 [Fragment 7H2],"MERS nsp1 MST, Kd",MERS nsp1,n.i
same,Kd,SARS-CoV-2 nsp1_10-126 [1],> 20 mM
same,Kd,"SARS-CoV-2 nsp1_10-126 [1]; read-out: SARS-CoV-2 nsp1 MST, Kd",> 20 mM
same,"Cross-binding to SARS-CoV-1 nsp1 by MST, in words",SARS-CoV-1 nsp1,no binding
same,"SARS-CoV-1 nsp1 MST, Kd",SARS-CoV-1 nsp1,n.i.
same,"TSA effect on unfolding of the protein, in words",SARS-CoV-2 nsp1_10-126 [2],Destabilisation effects
same,TSA ΔTi,SARS-CoV-2 nsp1_10-126 [2],−0.50 °C
same,TSA Ti ± SD,SARS-CoV-2 nsp1_10-126 [2],53.55 ± 0.25 °C
OCCNCc1ccccc1 [Fragment 8E6],Kd,MERS nsp1,> 20 mM
same,Kd,SARS-CoV-2 nsp1_10-126 [1],8.32 ± 3.32 mM
same,Kd,SARS-CoV-1 nsp1,> 20 mM
same,"TSA effect on unfolding of the protein, in words",SARS-CoV-2 nsp1_10-126 [2],Destabilisation effects
same,TSA |ΔTi|-3SD,SARS-CoV-2 nsp1_10-126 [2],0.67 °C
same,TSA ΔTi,SARS-CoV-2 nsp1_10-126 [2],−1.33 °C
same,TSA Ti ± SD,SARS-CoV-2 nsp1_10-126 [2],52.72 ± 0.22 °C
Nc1nc(-c2ccc(O)cc2)cs1 [Fragment 10B6],"Cross-binding to MERS nsp1 by MST, in words",MERS nsp1,moderate binding affinity
same,Kd,MERS nsp1,4.92 ± 4.19 mM
same,Kd,SARS-CoV-2 nsp1_10-126 [1],0.56 ± 0.19 mM
same,Kd,SARS-CoV-1 nsp1,> 20 mM
same,"TSA effect on unfolding of the protein, in words",SARS-CoV-2 nsp1_10-126 [2],Destabilisation effects
same,TSA |ΔTi|-3SD,SARS-CoV-2 nsp1_10-126 [2],2.33 °C
same,TSA ΔTi,SARS-CoV-2 nsp1_10-126 [2],−2.79 °C
same,TSA Ti ± SD,SARS-CoV-2 nsp1_10-126 [2],51.27 ± 0.15 °C
CNCc1csc(-c2cccc(Cl)c2)n1 [Fragment 11C6],"MERS nsp1 MST, Kd",MERS nsp1,n.i.
same,Kd,SARS-CoV-2 nsp1_10-126 [1],1.16 ± 0.22 mM
same,"Cross-binding to SARS-CoV-1 nsp1 by MST, in words",SARS-CoV-1 nsp1,strong cross-binding effects
same,Kd,SARS-CoV-1 nsp1,0.38 ± 0.14 mM
same,"TSA effect on unfolding of the protein, in words",SARS-CoV-2 nsp1_10-126 [2],Destabilisation effects
same,TSA |ΔTi|-3SD,SARS-CoV-2 nsp1_10-126 [2],0.13 °C
same,TSA ΔTi,SARS-CoV-2 nsp1_10-126 [2],−0.27 °C
same,TSA Ti ± SD,SARS-CoV-2 nsp1_10-126 [2],53.78 ± 0.05 °C
